Data from patent US6462024B1, “Use of inhibitors of the sodium-hydrogen exchanger for the production of a medicament for decreasing undesired effects of substrates of the heart” (Aventis Pharma Deutschland GmbH, priority 1997, dated 2002).
“Also recorded” adds a separate entry of the source.

System: isolated functioning rat heart
Test: low flow ischemia and reperfusion in the isolated functioning rat heart (working-heart mode)
Parameters: species or system Wistar-Kyoto rats
Details: for Incidence of ventricular fibrillations (VF) / Mean duration of ventricular fibrillations (VF) / Incidence of ventricular tachycardias (VT) / Mean duration of ventricular tachycardias and fibrillations (VT + VF): cariporide 1 μmol/l, Rulide 20 mg/kg oral; for incidence of ventricular fibrillation during the reperfusion phase / length of ventricular arrhythmias during the reperfusion phase: macrolide (Rulide) group versus macrolide-pretreated hearts treated with cariporide
Procedure: All investigations were carried out using hearts of Wistar-Kyoto rats (300-400 g body weight, BW). The rats were kept on a standard diet and had free access to water. The rats were anesthetized with pentobartital (60 mg/kg, i.p.), heparinized (500 I.U./100 g BW i.p.) and respirated with room air via a cannula which was inserted into the trachea. The thorax was then opened, and the heart was removed and placed in a 4° C. physiological solution. After cannulation of the aorta, the hearts were suspended in the unit and perfused in a retrograde manner according to the Langendorff method with an oxygenated (95% O2, 5% CO2), noncirculating Tyrode solution (in mmol/l: NaCl 124.6; KCl 4.0; CaCl2 2.2; MgCl2 1.1; NaHCO3 24.9; NaH2PO4 0.3; glucose 11.1) using a perfusion pressure of 51 mm Hg. The pulmonary artery and the left auricle were then cannulated and all pulmonary veins were ligated close to the auricle. After an equilibration phase of 15 minutes, the retrograde perfusion was changed into an anterograde perfusion (working-heart mode). At the same time, the filling pressure was adjusted to 11 mm Hg and the afterload to 51 mm Hg. The hearts were paced during the entire experiment at a frequency of 5 Hz. After 15 minutes in the working mode, the coronary flow was reduced by 90% in order to include a global low flow ischemia. The aortic pressure drops from 51 to 11 mm Hg in the course of this. This situation represents an angina pectoris attack in the patient. The low flow ischemia lasted 30 minutes. The hearts were then reperfused for 15 minutes in the Langendorff mode and for a further 15 minutes in the working mode. All animals received oral Rulide (macrolide, 20 mg/kg) dissolved in 1 ml of olive oil, or only 1 ml of olive oil (control), before the experiments. The Na^+/H^+ exchange inhibitor cariporide (1 μmol/l) and its vehicle (Tyrode solution) were added directly to the perfusion solution, i.e. immediately before the latter flows into the heart. The computer-controlled infusion of cariporide and the vehicle solution was begun 15 minutes before low flow ischemia and lasted for the entire experiment. The infusion quantity was 1:100th of the heart minute volume. The following parameters were measured 15 minutes before ischemia and at the end of the reperfusion phase: left ventricular pressure (LVP), left auricle pressure (LAP), aortic pressure (AP), heart-time volume (HTV), coronary flow (CF), aortic flow (AF), heart rate (HR), contractility (dP/dtmax), left ventricular pressure increase (LVPI) and the external heart work (EHW). From these values, the recovery (values after reperfusion based on the starting values before ischemia in %) was calculated. Moreover, the ECG was recorded during the entire experiment and the sum of the individual arrhythmia intervals (ventricular tachycardias and ventricular fibrillations) over the entire experimental period was formed.

[1] = pretreatment with Rulide, ischemia and reperfusion

Row | recovery compared with the control group [1] | Compound | effect on the arrhythmias during ischemia (during ischemia) | Incidence of ventricular fibrillations (VF) (during ischemia) [%] | Mean duration of ventricular fibrillations (VF) (during ischemia) [s] | Incidence of ventricular fibrillations (VF) (during reperfusion) [%] | Incidence of ventricular tachycardias (VT) (during reperfusion) [%] | Mean duration of ventricular tachycardias and fibrillations (VT + VF) (during reperfusion) [s] | incidence of ventricular fibrillation during the reperfusion phase [%] | length of ventricular arrhythmias during the reperfusion phase [s] | cardiotoxic effect of the macrolide (pretreatment of the heart with cariporide, ischemia and reperfusion) | incidence and duration of ventricular arrhythmias compared with the control group [1]
1 |  | CC(C)c1ccc(C(=O)NC(=N)N)cc1S(C)(=O)=O [Cariporide (HOE642), cariporide] | no effect | 33 | 38 ± 26 | 0 | 100 | 204 ± 32 | 38 | 198 | completely prevented; also recorded: completely inhibits | 
2 | further impairment of recovery | CC[C@H]1OC(=O)[C@H](C)[C@@H](O[C@H]2C[C@@](C)(OC)[C@@H](O)[C@H](C)O2)[C@H](C)[C@@H](O[C@@H]2O[C@H](C)C[C@H](N(C)C)[C@H]2O)[C@](C)(O)C[C@@H](C)/C(=N\OCOCCOC)[C@H](C)[C@@H](O)[C@]1(C)O [Rulide, reference compound] |  | 100 | 181 ± 79 | 100 | 100 | 1709 ± 319 | 100 | 1709 |  | increase in the incidence and the duration of ventricular arrhythmias
